Tests used:
Format in all cases: cell-based, budding yeast (Saccharomyces cerevisiae)
Jhd2 phosphorylation = Jhd2 phosphorylation in cells at different glucose concentrations; details: 0.05%, 0.5%, 2% glucose, WT, Jhd2-S321A, S340A and tpk2Δ
Experimental: (§1) To examine the effect of glucose on histone modifications, yeast cells were grown in 2% glucose-containing YPD (Yeast Extract Peptone Dextrose) medium until OD600 of 0.7–1.0. Cells were then collected, washed and resuspended in YP medium for 3 hr followed by treatment with different concentrations of glucose for 0.5 hr. For 1NM-PP1 (MCE, HY-13804) treatment, cells were grown in 2% YPD until OD600 of 0.7–1.0. Cells were then treated with 25 μM 1NM-PP1 for 0.5 hr. For FBP and pyruvate treatment, cells were pre-treated with Zymolase (Mpbio, 08320921) to increase the permeability. In brief, cells were grown in YPD medium until OD600 of 0.7–1.0, centrifuged and resuspended in 1 ml SB buffer (100 mM Sorbitol, 20 mM Tris pH 7.4). 10 μl Zymolase was then added and incubated at 30 °C for 15 min. The spheroplasts were washed and cultured in YPD medium containing different concentrations of FBP and pyruvate for 3 hr.
Cells were grown in 5 ml YPD or selective medium until OD600 of 0.7–1.0. Cells were harvested and lysed in alkaline lysis buffer (2 M NaOH, 8% 2-mercaptoethanol). After centrifugation, the protein pellet was resuspended in 150 μl 2×SDS-sample buffer. Protein samples were separated by 8–15% SDS-PAGE and transferred to PVDF membrane. […] The protein bands were visualized using the ECL Chemiluminescence Detection Kit (Bio-Rad, 170–5061) and quantified with Image J software (v.1.8.0).

H3R2me2a = assay: Western blot of H3R2me2a after glucose; details: for H3R2me2a/H3: 0.5 hr
Experimental: as §1
(§2) Cells were grown in 5 ml YPD or selective medium until OD600 of 0.7–1.0. Cells were harvested and lysed in alkaline lysis buffer (2 M NaOH, 8% 2-mercaptoethanol). After centrifugation, the protein pellet was resuspended in 150 μl 2×SDS-sample buffer. Protein samples were separated by 8–15% SDS-PAGE and transferred to PVDF membrane. The blots were probed with primary antibodies followed by incubation with horseradish peroxidase-labelled IgG secondary antibodies. The protein bands were visualized using the ECL Chemiluminescence Detection Kit (Bio-Rad, 170–5061) and quantified with Image J software (v.1.8.0).
Supplementary Fi g . […] WT (a) and H2B-F LA G cel ls (b) wer e grown in YPD medium until OD600 of 0.7.
Cells were th en tr eat ed with YP medium supplement ed with differen t concentrations of glucos e for 0.5 hr. C ells were h ar vested an d the ex tract ed histones w er e anal yz ed by Western blots with indicat ed ant ibodies. To d et ect H2B monoubiquitination, H2B-F LAG strain w as used and d et ect ed with anti -F LAG ant ibody. Th e upper bands ar e monoubiquitinat ed H2B-F LAG. c E ff e c t of gl ucose on histone modifications in WT and ubp8∆ ubp10∆ mutant. WT and ubp8∆ ubp10∆ mut ant w er e gro wn in YPD medium unti l OD600 of 0.7. Cells wer e th en treated with YP medium supplem ent ed with di fferent con cen tr ations of gl u cos e fo r 0.5 hr. d Gluco se has no effect on the activit y of C O M PA S S . Spp1-TA P cells wer e grown in YPD medium until OD600 of 1.5. Cells were h arv est ed and then treat ed with YP + 0.05% glucos e and YP + 4% gl u cos e for 0.5 hr. Spp1-cont aining COMPASS (Spp1-CBP ) was then p urifi ed by tand em affinit y puri fi cati on ( TA P ) . Th e in vitro hi stone meth yltransferase assa y was p er form ed wit h purifi ed C O M PA S S and in vitro assembl ed nucl eosom es. e E ff e c t of the m TO R pathwa y on H3K4 meth ylation. […]
For Supplem ent ar y Fi g. 1b, e-g, i-k, d at a r ep res ent means ± SEM; n=3 i ndependent ex perim ents. For Supplem entar y Fi g. 1c, d ata represent means ± SEM; n=4 independent ex periments. Tw o -sided t-tests were used for statistical analysis.

PKA subunits = assay: Expression of PKA subunits (Tpk1, Tpk2, Tpk3, Bcy1) after glucose, Western blot; details: for Tpk2/GAPDH / Tpk3/GAPDH: normalized to Tpk1/GAPDH at same glucose; for Bcy1/GAPDH: normalized to Bcy1/GAPDH at 0.05% glucose
Experimental: as §2
Supplementary Fi g . 11 Analysis of PKA subunits subcellular localization, expression and Bcy1 dissociation kinetics. […]
For Supplem ent ar y Fi g. 11 b, dat a r ep res ent m ean s ± SEM; n=3 independent ex perim ents. Tw o -sid ed t-t ests were us ed for statistical

OC[C@H]1OC(O)[C@H](O)[C@@H](O)[C@@H]1O (stereo partly drawn) [glucose]
Jhd2 phosphorylation in response to glucose (Jhd2 phosphorylation): Jhd2 phosphorylation was elevated when the concentration of glucose was increased from 0.05 to 2% in WT but not in Jhd2-S321A, S340A and tpk2Δ mutants | H3R2me2a/H3 (H3R2me2a; 0.5% glucose, relative to 0.05% glucose = 1, replicate 1): 1.016 | H3R2me2a/H3 (H3R2me2a; 0.5% glucose, relative to 0.05% glucose = 1, replicate 2): 0.8082 | H3R2me2a/H3 (H3R2me2a; 0.5% glucose, relative to 0.05% glucose = 1, replicate 3): 1.063 | H3R2me2a/H3 (H3R2me2a; 1% glucose, relative to 0.05% glucose = 1, replicate 1): 1.0068 | H3R2me2a/H3 (H3R2me2a; 1% glucose, relative to 0.05% glucose = 1, replicate 2): 0.9832 | H3R2me2a/H3 (H3R2me2a; 1% glucose, relative to 0.05% glucose = 1, replicate 3): 1.068 | H3R2me2a/H3 (H3R2me2a; 2% glucose, relative to 0.05% glucose = 1, replicate 1): 0.9685 | H3R2me2a/H3 (H3R2me2a; 2% glucose, relative to 0.05% glucose = 1, replicate 2): 0.8294 | H3R2me2a/H3 (H3R2me2a; 2% glucose, relative to 0.05% glucose = 1, replicate 3): 0.8742 | H3R2me2a/H3 (H3R2me2a; 4% glucose, relative to 0.05% glucose = 1, replicate 1): 1.047 | H3R2me2a/H3 (H3R2me2a; 4% glucose, relative to 0.05% glucose = 1, replicate 2): 0.9174 | H3R2me2a/H3 (H3R2me2a; 4% glucose, relative to 0.05% glucose = 1, replicate 3): 0.9548 | H3R2me2a level (H3R2me2a; glucose 0.5 hr, Western blot): had no significant effect on H3R2me2a | Tpk2/GAPDH (PKA subunits; 0.05% glucose, replicate 1): 1.627 | Tpk3/GAPDH (PKA subunits; 0.05% glucose, replicate 1): 0.4263 | Tpk2/GAPDH (PKA subunits; 0.05% glucose, replicate 2): 1.616 | Tpk3/GAPDH (PKA subunits; 0.05% glucose, replicate 2): 0.1439 | Tpk2/GAPDH (PKA subunits; 0.05% glucose, replicate 3): 1.728 | Tpk3/GAPDH (PKA subunits; 0.05% glucose, replicate 3): 0.2447 | expression of PKA subunits (PKA subunits; 0.05%, 0.5%, 2% glucose, Western blot): not significantly altered by glucose | Bcy1/GAPDH (PKA subunits; 0.5% glucose, replicate 1): 0.8311 | Bcy1/GAPDH (PKA subunits; 0.5% glucose, replicate 2): 0.7213 | Bcy1/GAPDH (PKA subunits; 0.5% glucose, replicate 3): 1.191 | Tpk2/GAPDH (PKA subunits; 0.5% glucose, replicate 1): 1.363 | Tpk3/GAPDH (PKA subunits; 0.5% glucose, replicate 1): 0.4332 | Tpk2/GAPDH (PKA subunits; 0.5% glucose, replicate 2): 1.712 | Tpk3/GAPDH (PKA subunits; 0.5% glucose, replicate 2): 0.3492 | Tpk2/GAPDH (PKA subunits; 0.5% glucose, replicate 3): 1.416 | Tpk3/GAPDH (PKA subunits; 0.5% glucose, replicate 3): 0.1641 | Bcy1/GAPDH (PKA subunits; 2% glucose, replicate 1): 1.059 | Bcy1/GAPDH (PKA subunits; 2% glucose, replicate 2): 0.8633 | Bcy1/GAPDH (PKA subunits; 2% glucose, replicate 3): 0.977 | Tpk2/GAPDH (PKA subunits; 2% glucose, replicate 1): 1.492 | Tpk3/GAPDH (PKA subunits; 2% glucose, replicate 1): 0.565 | Tpk2/GAPDH (PKA subunits; 2% glucose, replicate 2): 1.634 | Tpk3/GAPDH (PKA subunits; 2% glucose, replicate 2): 0.1809 | Tpk2/GAPDH (PKA subunits; 2% glucose, replicate 3): 1.419 | Tpk3/GAPDH (PKA subunits; 2% glucose, replicate 3): 0.2075

— PMC9515143, “Phosphorylation of Jhd2 by the Ras-cAMP-PKA(Tpk2) pathway regulates histone modifications and autophagy” (Nature Communications, 2022)
